Assay results reported in patent US11174250B2, “Substituted carboxamides as inhibitors of WDR5 protein-protein binding” (PROPELLON THERAPEUTICS INC., priority 2016, dated 2021).
Read-outs that look alike come from different tables or passages of the source.

Experiments:
MLL1-WRAD2 complex = MLL1-WRAD2 complex (Homo sapiens (Human), UniProt P61964); assay: MLL1-WRAD2 enzyme assay (in vitro methyl transferase assay); type: biochemical; conditions: MLL1-WRAD2 assay; read-out: In vitro MLL1 activity (IC50)
Description: Reaction was initiated with 1 μM 3H-SAM and incubated for 1 hour at 30° C. Reaction mixture was transferred to P81 filter-paper and washed with PBS before detection.

[1] = system: H3K4 dimethylation (H3K4me2) in T24 cells; assay: Detection of in-cell H3K4 dimethylation (AlphaLisa); type: cell-based; conditions: Homo sapiens, T-24, 120 h, five days
Description: T24 cells were seeded into a 96-well plate at 400 cells/well in 150 μl medium (McCoy 5A containing 10% FBS, 100 μg/ml Normocin, and 50 μg/ml Gentamycin, Invitrogen). A HP D300 digital dispenser was used to dose cells with DMSO or test compounds across a 10-point range of concentrations (high dose of 10 μM), and cultures were grown in a humidified 5% CO2 incubator at 37° C. After five days, plates were removed from incubator, media was aspirated, and the cells washed in PBS. Cell lysis, histone extraction, and detection of H3K4 dimethylation (H3K4me2) were performed using an AlphaLisa kit according to the manufacturer's instructions (Perkin Elmer). Signal was measured using an Envision plate reader.

MV4-11 cells = assay: Cell proliferation assay (ATPlite); type: cell-based; conditions: Homo sapiens, MV4-11, 120 h; MV-411 cells, five days; read-out: In vitro whole cell potency in MV-411 cells, (IC50)
Description: MV4-11 cells were seeded into a 96-well plate at 1,000 cells/well in 150 μl medium (Alpha-MEM containing 10% FBS, 100 μg/ml Normocin, and 50 μg/ml Gentamycin, Invitrogen). A HP D300 digital dispenser was used to dose cells with DMSO or test compounds across a 10-point range of concentrations (high dose of 10 μM), and cultures were grown in a humidified 5% CO2 incubator at 37° C. After five days, plates were removed from incubator and equilibrated to room temperature. An equal volume of ATPlite assay reagent was added to each well, and samples were processed according to manufacturer's instructions (Perkin Elmer). Luminescent signal was measured using an Envision plate reader equipped with a US-Luminescence detector.

WDR5 protein = WDR5 protein (Homo sapiens (Human), UniProt P61964); assay: Surface Plasmon Resonance (SPR) assay; type: binding; conditions: SPR; for residence time: τ=1/koff, read-out: Residence Time (t, min)
Description: Exemplary compounds of the application were dissolved in 100% DMSO at 10 mM, assayed fresh, and then stored at −20° C. for repeat studies and other experiments. Full length WDR5 with an N-terminal His tag and C-terminal AviTag (Avidity Inc.) was expressed in E. coli with coexpression of BirA to biotin label the protein in vivo. Purification was via Ni-NTA. The purified WDR5 protein has a molecular weight of 41976 Da.
SPR studies were performed using a Biacore™ T200 instrument (GE Health Sciences Inc.). Biotinylated WDR5 protein (approximately 3000RU) was stably captured to streptavidin coupled SA chips according to the manufacture's protocol (GE Health Sciences Inc.). The running buffer used was HBS-EP (20 mM Hepes pH 7.4, 150 mM NaCl, 3 mM EDTA, 0.05% P-20) plus 5% DMSO with a flow rate of 40p1/min. For SPR analysis, 5 different concentrations of each exemplary compound of the application were sprayed into 96 or 384 well plates using an HP D300 digital dispenser. […] Curve fitting and KD calculations were performed with the Biacore T200 Evaluation software (GE Health Sciences Inc).

[2] = Table 1, read-out: WDR5 binding affinity (KD)
[3] = Table 2, read-out: WDR5 binding affinity SPR (KD)

Work on `CN1CCN(c2ccc(-c3cc(CN4CCOCC4)ccc3F)cc2NC(=O)c2c[nH]c(=O)cc2C(F)(F)F)CC1` [Example 2, N-(2′-fluoro-4-(4-methylpiperazin-1-yl)-5′-(morpholinomethyl)-[1,1′-biphenyl]-3-yl)-6-oxo-4-(trifluoromethyl)-1,6-dihydropyridine-3-carboxamide] yielded an IC50 (MLL1-WRAD2 complex) of 939 nM, an IC50 [1] of 952 nM and an IC50 (MV4-11 cells) of 634 nM.

In the case of `CN1CCN(c2ccc(-c3cc(CN4CC[C@@H](O)C4)ccc3F)cc2NC(=O)c2c[nH]c(=O)cc2C(F)(F)F)CC1` [Example 69, (R)—N-(2′-fluoro-5′-((3-hydroxypyrrolidin-1-yl)methyl)-4-(4-methylpiperazin-1-yl)-[1,1′-biphenyl]-3-yl)-6-oxo-4-(trifluoromethyl)-1,6-dihydropyridine-3-carboxamide], the Kd (WDR5 protein; [2]) is reported as 5.4 nM, the Kd (WDR5 protein; [3]) is reported as 5.4 nM and the residence time (WDR5 protein) is reported as 2.36 min. It also gave an IC50 (MLL1-WRAD2 complex) of 2890 nM and an IC50 (MV4-11 cells) greater than 10000 nM.

Compound `CN1CCN(c2ccc(-c3cc(CN4CC[C@@H](N(C)C)C4)ccc3F)cc2NC(=O)c2c[nH]c(=O)cc2C(F)(F)F)CC1` [Example 71, (R)—N-(5′-((3-(dimethylamino)pyrrolidin-1-yl)methyl)-2′-fluoro-4-(4-methylpiperazin-1-yl)-[1,1′-biphenyl]-3-yl)-6-oxo-4-(trifluoromethyl)-1,6-dihydropyridine-3-carboxamide] has a Kd (WDR5 protein; [2]) of 4.8 nM, a Kd (WDR5 protein; [3]) of 4.8 nM and a residence time (WDR5 protein) of 4.29 min. The IC50 (MLL1-WRAD2 complex) was 2070 nM and the IC50 (MV4-11 cells) was 2710 nM.

With `CN1CCN(c2ccc(-c3cc(CN(C)[C@H]4CCOC4)ccc3F)cc2NC(=O)c2c[nH]c(=O)cc2C(F)(F)F)CC1` [Example 76, (S)—N-(2′-fluoro-5′-((methyl(tetrahydrofuran-3-yl)amino)methyl)-4-(4-methylpiperazin-1-yl)-[1,1′-biphenyl]-3-yl)-6-oxo-4-(trifluoromethyl)-1,6-dihydropyridine-3-carboxamide] the Kd (WDR5 protein; [2]) was 5.5 nM, the Kd (WDR5 protein; [3]) was 5.5 nM and the residence time (WDR5 protein) was 3.81 min. It also gave an IC50 (MLL1-WRAD2 complex) of 1900 nM and an IC50 (MV4-11 cells) of 787 nM.

`CC1CN(c2ccc(-c3cc(C(=O)NC4CCCCC4)ccc3F)cc2NC(=O)c2c[nH]c(=O)cc2C(F)(F)F)CCN1C` (stereo not shown) [Example 81, N-(5′-(cyclohexylcarbamoyl)-4-(3,4-dimethylpiperazin-1-yl)-2′-fluoro-[1,1′-biphenyl]-3-yl)-6-oxo-4-(trifluoromethyl)-1,6-dihydropyridine-3-carboxamide] showed a Kd (WDR5 protein; [2]) of 6.3 nM, a Kd (WDR5 protein; [3]) of 17.5 nM and a residence time (WDR5 protein) of 0.78 min. For the same compound, the IC50 (MLL1-WRAD2 complex) was greater than 30000 nM and the IC50 (MV4-11 cells) was greater than 10000 nM.

`C[C@@H]1CN(c2ccc(-c3ccc(OCC4CC4)nc3F)cc2NC(=O)c2c[nH]c(=O)cc2C(F)(F)F)C[C@H](C)N1C` [Example 82, N-(5-(6-(cyclopropylmethoxy)-2-fluoropyridin-3-yl)-2-((3R,5S)-3,4,5-trimethylpiperazin-1-yl)phenyl)-6-oxo-4-(trifluoromethyl)-1,6-dihydropyridine-3-carboxamide] was tested, and the Kd (WDR5 protein; [2]) was 0.7 nM, the Kd (WDR5 protein; [3]) was 0.7 nM and the residence time (WDR5 protein) was 23 min. The IC50 (MLL1-WRAD2 complex) was 549 nM and the IC50 (MV4-11 cells) was 536 nM.

`CN1CCN(c2ccc(-c3cc(CN4CCOCC4)ccc3F)cc2NC(=O)c2c[nH]c(=O)cc2C(F)F)CC1` [Example 49, 4-(difluoromethyl)-N-(2′-fluoro-4-(4-methylpiperazin-1-yl)-5′-(morpholinomethyl)-[1,1′-biphenyl]-3-yl)-6-oxo-1,6-dihydropyridine-3-carboxamide] was tested, and the Kd (WDR5 protein; [2]) was 7 nM, the Kd (WDR5 protein; [3]) was 7 nM and the residence time (WDR5 protein) was 3.89 min. The IC50 (MLL1-WRAD2 complex) was 1570 nM and the IC50 (MV4-11 cells) was 2240 nM.

In the case of `C[C@@H]1CN(c2ccc(-c3cc(C(=O)N4CCOCC4)ccc3F)cc2NC(=O)c2c[nH]c(=O)cc2C(F)(F)F)C[C@H](C)N1C` [Example 47, N-(2′-fluoro-5′-(morpholine-4-carbonyl)-4-((3S,5R)-3,4,5-trimethylpiperazin-1-yl)-[1,1′-biphenyl]-3-yl)-6-oxo-4-(trifluoromethyl)-1,6-dihydropyridine-3-carboxamide], the Kd (WDR5 protein; [2]) is reported as 8 nM, the Kd (WDR5 protein; [3]) is reported as 8 nM and the residence time (WDR5 protein) is reported as 9.58 min. It also gave an IC50 (MLL1-WRAD2 complex) of 2390 nM and an IC50 (MV4-11 cells) of 1990 nM.

With `CN1CCN(c2ccc(-c3cc(CN4CCC(F)CC4)ccc3F)cc2NC(=O)c2c[nH]c(=O)cc2C(F)(F)F)CC1` [Example 73, N-(2′-fluoro-5′-((4-fluoropiperidin-1-yl)methyl)-4-(4-methylpiperazin-1-yl)-[1,1′-biphenyl]-3-yl)-6-oxo-4-(trifluoromethyl)-1,6-dihydropyridine-3-carboxamide] the Kd (WDR5 protein; [2]) was 4.2 nM, the Kd (WDR5 protein; [3]) was 4.2 nM and the residence time (WDR5 protein) was 5.44 min. For the same compound, the IC50 (MLL1-WRAD2 complex) was 592 nM and the IC50 (MV4-11 cells) was 502 nM.
